Measured values reported in ChEMBL document CHEMBL1201862, “PubChem BioAssay data set” (2004).
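Briefly, cells in 96-well plates were exposed to five compound concentrations for 48 h, and endpoints were estimated by linear interpolation. Here, GI50 denotes the concentration required for 50% inhibition of growth.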 Calls of active or inactive are those of the source. Rule as the data show it: active = GI50 up to about 1.1 µM and inactive = higher.

How the values were obtained:
Test in all cases: inhibition of tumour cell growth, NCI panel, 48 h
COLO 205 = tested on: COLO 205
LXFL 529 = tested on: LXFL 529
HOP-92 = tested on: HOP-92
SNB-75 = tested on: SNB-75
HL-60 = tested on: HL-60
NCI-H522 = tested on: NCI-H522
Malme-3M = tested on: Malme-3M
KM-20L2 = tested on: KM-20L2
SK-OV-3 = tested on: SK-OV-3
NCI-H226 = tested on: NCI-H226
EKVX = tested on: EKVX
TK-10 = tested on: TK-10
SK-MEL-5 = tested on: SK-MEL-5
A498 = tested on: A498
SR = tested on: SR
NCI-H23 = tested on: NCI-H23
HT-29 = tested on: HT-29
KM12 = tested on: KM12
SNB-78 = tested on: SNB-78

Measured: GI50

CSc1nc2nccnc2c(=O)[nH]1
inactive: COLO 205 > 100 µM | LXFL 529 > 100 µM | HOP-92 96.2 µM | SNB-75 > 100 µM | HL-60 > 100 µM | NCI-H522 > 100 µM | Malme-3M > 100 µM | KM-20L2 > 100 µM | SK-OV-3 > 100 µM | NCI-H226 > 100 µM | EKVX > 100 µM | TK-10 > 100 µM | SK-MEL-5 > 100 µM | A498 > 100 µM | SR > 100 µM | NCI-H23 > 100 µM | HT-29 > 100 µM

N#CC(C(=O)C(=O)Nc1ccccc1)c1ccccc1 (stereo unspecified)
inactive: KM12 > 100 µM | LXFL 529 > 100 µM | HOP-92 > 100 µM | SNB-75 > 100 µM | HL-60 > 100 µM | NCI-H522 > 100 µM | Malme-3M > 100 µM | KM-20L2 > 100 µM | SK-OV-3 > 100 µM | NCI-H226 > 100 µM | EKVX > 100 µM | TK-10 > 100 µM | SR > 100 µM | NCI-H23 > 100 µM | HT-29 > 100 µM

CCN(/N=C1\CC2C=CCN(C2)C(=O)Cc2c1[nH]c1ccccc21)S(=O)(=O)c1ccc(C)cc1 (stereo unspecified)
inactive: KM12 69.8 µM | COLO 205 68.2 µM | SNB-75 35.6 µM | HL-60 73.1 µM | NCI-H522 36.7 µM | Malme-3M > 100 µM | KM-20L2 64.1 µM | NCI-H226 14.6 µM | EKVX 40.3 µM | TK-10 > 100 µM | SK-MEL-5 56.6 µM | SR 64.4 µM | NCI-H23 87.5 µM

c1cncc(CSc2nc3ccccc3nc2-c2cccs2)c1
inactive: KM12 48.6 µM | COLO 205 > 100 µM | SNB-75 > 100 µM | HL-60 13 µM | NCI-H522 33.4 µM | Malme-3M 46.1 µM | NCI-H226 70 µM | SNB-78 > 100 µM | EKVX 98.4 µM | TK-10 > 100 µM | SK-MEL-5 > 100 µM | SR 40.9 µM | NCI-H23 > 100 µM | HT-29 57.1 µM

O=C(NN1C(=O)C(Cl)C1c1ccccc1Cl)c1ccccc1O (stereo unspecified)
inactive: KM12 > 100 µM | LXFL 529 > 100 µM | SNB-75 > 100 µM | HL-60 > 100 µM | NCI-H522 > 100 µM | Malme-3M > 100 µM | SK-OV-3 > 100 µM | NCI-H226 > 100 µM | SNB-78 > 100 µM | TK-10 > 100 µM | SK-MEL-5 > 100 µM | HT-29 > 100 µM
